Where “and” joins values, the source holds several entries; their conditions need not be identical. Identical values can stand only once.
Experiments:
[1] = tested on: Aspergillus niger ATCC 6275; assay: Checkerboard MIC test, pyrithiones with zinc salts; type: cell-based; conditions: TSB, 28 C, 5 days
[2] = tested on: Pseudomonas aeruginosa NCIMB 6749; assay: Checkerboard MIC test, pyrithiones with zinc salts; type: cell-based; conditions: TSB, 28 C, 3 days
[3] = tested on: Staphylococcus aureus ATCC 27217; assay: Checkerboard MIC test, pyrithiones with zinc salts; type: cell-based; conditions: TSB, 28 C, 3 days
two cultures of fungi = assay: Challenge test in soluble oil metalworking fluid, fungi (Example 6); type: cell-based; conditions: soluble oil MWF, 10 ppm Zn, 100 ppm NaPT, 50 ppm ZPT or 50 ppm CuPT as in column head
Fusarium sp. = assay: Checkerboard MIC test, pyrithiones with zinc salts; type: cell-based; conditions: TSB, 28 C, 5 days
Procedure: Mixtures of pyrithione and zinc or silver in various proportions were tested for relative efficacy by a modification of the procedure described by Dougherty, et al.
Equal volumes of bacteria (10^6 cells/ml) or fungi (10^5 spores/ml) were added to each microtiter plate well. The plates were incubated at 28 C for 3 days (bacteria) or 5 days (fungi), and the minimum inhibitory concentration (MIC) of biocide was determined. The Fractional Inhibitory Concentration (FIC=concentration of biocide in an inhibitory mixture divided by the MIC of the pure biocide) was determined, and the FIC Index (sum of the two FIC's) was calculated. The type of interaction was categorized according to the magnitude of the Index: Synergistic (<1), Additive (1), or Antagonistic (>1).

[4] = tested on: seven cultures of bacteria; assay: Challenge test in soluble oil metalworking fluid, bacteria (Example 6); type: cell-based; conditions: soluble oil MWF, 10 ppm Zn, 100 ppm NaPT, 50 ppm ZPT or 50 ppm CuPT as in column head
Escherichia coli 10536 = assay: Checkerboard MIC test, pyrithiones with silver salts; type: cell-based; conditions: ZPT alone or in the inhibitory mixture with silver salt; TSB pH 7.3, 35° C., 1 to 2 days
[5] = tested on: Pseudomonas aeruginosa NCIMB 6749; assay: Zone of inhibition test (paper disc on TSA); type: cell-based; conditions: 6.5 mm discs; 0.135% pyrithione, 0.1% ZnCl2 or both; 28° C., 24 hr
[6] = tested on: Staphylococcus aureus 27217; assay: Checkerboard MIC test, pyrithiones with silver salts; type: cell-based; conditions: ZPT alone or in the inhibitory mixture with silver salt; TSB pH 7.3, 35° C., 1 to 2 days
Ps. aeruginosa ATCC 9027 = assay: Checkerboard MIC test, pyrithiones with zinc salts; type: cell-based, Pseudomonas aeruginosa; conditions: TSB, 28 C, 3 days
[7] = tested on: Escherichia coli ATCC 10536; assay: Zone of inhibition test (paper disc on TSA); type: cell-based; conditions: 6.5 mm discs; 0.135% pyrithione, 0.1% ZnCl2 or both; 28° C., 24 hr
[8] = tested on: Staphylococcus aureus ATCC 27217; assay: Zone of inhibition test (paper disc on TSA); type: cell-based; conditions: 6.5 mm discs; 0.135% pyrithione, 0.1% ZnCl2 or both; 28° C., 24 hr
Fusarium sp. biofilm = assay: Viable biofilm cells on discs in metalworking fluid (Example 5); type: cell-based; conditions: polycarbonate disc, 100 PPM NaPT, 10 PPM Zn (II) or both, 4 days after treatment
Procedure: (§1) Experiments were conducted to investigate the efficacy of the composition of the present invention to inhibit the survival, growth, and proliferation of free-living and biofilm populations of bacteria and fungi in metalworking fluids. […] Metalworking fluids (MWF) employed included 5% soluble oil MWF, 5% semi-synthetic MWF, or 5% synthetic MWS. For testing against bacteria, metalworking fluids were supplemented with 2% (weight-to-weight ratio (w:w)) of 5 g/L yeast extract (Difco), Metalworking fluids were supplemented with 2% (weight-to-weight (w:w)) of Tryptic Soy Broth (Difco) for fungal tests.
(§2) For each experiment, three ml of a 5% metalworking fluid was added to each of twelve, sterile, 16 mm×150 mm glass culture tubes. […] Fusarium sp. was added to the tubes to final concentrations of 10^5 spores/ml for the fungal tests. Tubes incubated for 3 days at 28° C. and 180 rpms.
(§3) After the treatments additions were performed, the culture tubes resumed incubation at 28° C., 180 rpms for an additional 4 days.
(§4) After 4 days, culture tubes were removed from the incubator and viable counts of organisms from the bulk MWF fluid and the biofilm were determined using serial dilution and drop plating techniques. For biofilms, polycarbonate discs were removed from tubes, dip-rinsed in three successive washes of de-ionized water to remove loosely attached cells, and transferred to 25 mm×150 mm culture tubes containing 10 ml of sterile, de-ionized water. Biofilms were removed from discs and resuspended by vortexing tubes for 30 seconds. Bacteria were plated on to R2A Agar plates and incubated at 37° C. Fungi were plated onto Malt Agar plates and incubated at 28° C. Mean colony forming units per ml (for bulk) and per square cm (cm^2) biofilm were determined for each experimental treatment.

[9] = tested on: mixed bacteria (Pseudomonas aeruginosa 9027, Escherichia coli 8739, Pseudomonas fluorescens 12201, Pseudomonas rubescens 12202, Pseudomonas putida); assay: Various mixtures of NaPT and Zn(II) against bacteria in 5% metalworking fluid (Example 8, Table 10a); type: cell-based, Pseudomonas spp.
[10] = tested on: Fusarium sp. free-living cells; assay: Viable free-living cells in bulk metalworking fluid (Example 5); type: cell-based; conditions: 100 PPM NaPT, 10 PPM Zn (II) or both, 4 days after treatment
Procedure: as §1, §2, §3, §4

[11] = tested on: Fusarium sp. and Cephalosporium sp.; assay: Various mixtures of NaPT and Zn(II) against fungi in 5% metalworking fluid (Example 8, Table 10b); type: cell-based
[12] = tested on: E. coli 8739 free-living cells; assay: Viable free-living cells in bulk metalworking fluid (Example 5); type: cell-based, Escherichia coli; conditions: 10% TSB; 100 PPM NaPT, 10 PPM Zn (II) or both; 4 days after treatment
E. coli 8739 biofilm = assay: Viable biofilm cells on discs in metalworking fluid (Example 5); type: cell-based, Escherichia coli; conditions: 10% TSB, polycarbonate disc; 100 PPM NaPT, 10 PPM Zn (II) or both; 4 days after treatment
[13] = pyrithione alone or in the inhibitory mixture with ZnO
[14] = pyrithione alone or pyrithione concentration in the inhibitory mixture
[15] = Zn(II) from ZnO, alone or in the inhibitory mixture
[16] = Zn(II) alone or Zn(II) concentration in the inhibitory mixture
[17] = semi-synthetic, Zn (II) 10 PPM, Day 1
[18] = semi-synthetic, Zn (II) 10 PPM, Day 2
[19] = semi-synthetic, Zn (II) 10 PPM, Day 7
[20] = semi-synthetic, Zn (II) 20 PPM, Day 1
[21] = semi-synthetic, Zn (II) 20 PPM, Day 2
[22] = semi-synthetic, Zn (II) 20 PPM, Day 7
[23] = semi-synthetic, Zn (II) 30 PPM, Day 1
[24] = semi-synthetic, Zn (II) 30 PPM, Day 2
[25] = semi-synthetic, Zn (II) 30 PPM, Day 7
[26] = semi-synthetic, Zn (II) 100 PPM, Day 1
[27] = semi-synthetic, Zn (II) 100 PPM, Day 4
[28] = semi-synthetic, Zn (II) 500 PPM, Day 1
[29] = semi-synthetic, Zn (II) 500 PPM, Day 4
[30] = synthetic, Zn (II) 10 PPM, Day 1
[31] = synthetic, Zn (II) 20 PPM, Day 1

zinc pyrithione [ZPT]
MIC Pyrithione [1, 13]: 64 ppm | MIC Pyrithione [2, 14]: 256 ppm | MIC Pyrithione [3, 14]: 4 ppm | FUNGI (cfu/ml) (two cultures of fungi; DAY 0): 2.4 × 10^5 cfu/ml | FUNGI (cfu/ml) (two cultures of fungi; DAY 6): 1000 cfu/ml | FUNGI (cfu/ml) (two cultures of fungi; DAY 13): 10 cfu/ml | FUNGI (cfu/ml) (two cultures of fungi; DAY 20): 10 cfu/ml | MIC Pyrithione (Fusarium sp.; [14]): 64 ppm | BACTERIA (cfu/ml) ([4]; DAY 0): 3.2 × 10^7 cfu/ml | BACTERIA (cfu/ml) ([4]; DAY 6): 1000 cfu/ml | BACTERIA (cfu/ml) ([4]; DAY 13): 4400 cfu/ml | BACTERIA (cfu/ml) ([4]; DAY 20): 7700 cfu/ml | MIC ZPT (Escherichia coli 10536): 8 ppm | Zone of Inhibition [5]: 10 mm | MIC ZPT [6]: 4 ppm | MIC Pyrithione (Ps. aeruginosa ATCC 9027; [13]): 512 ppm | Zone of Inhibition [7]: 31 mm | Zone of Inhibition [8]: 27 mm

[O]=[Zn] [ZnO]
MIC Zn(II) [1, 15]: >1645 ppm | MIC Zn(II) (Ps. aeruginosa ATCC 9027; [15]): >1645 ppm

O=S(=O)([O-])[O-].[Zn+2] [ZnSO4]
MIC Zn(II) [2, 16]: >200 ppm and <200 ppm | viable biofilm microorganisms (Fusarium sp. biofilm; 5% semisynth. MWF): 27 cells/cm^2 | viable biofilm microorganisms (Fusarium sp. biofilm; 5% synthetic MWF): 1.4 × 10^5 cells/cm^2 | viable biofilm microorganisms (Fusarium sp. biofilm; 100% TSB): 3.3 × 10^4 cells/cm^2 | MIC Zn(II) [3, 16]: 200 ppm | Bacteria/ml [9, 17]: 170 Bacteria/ml | Bacteria/ml [9, 18]: 3.2 × 10^5 Bacteria/ml | Bacteria/ml [9, 19]: 4.8 × 10^4 Bacteria/ml | Bacteria/ml [9, 20]: 1.5 × 10^5 Bacteria/ml | Bacteria/ml [9, 21]: 1.4 × 10^4 Bacteria/ml | Bacteria/ml [9, 22]: 4.0 × 10^3 Bacteria/ml | Bacteria/ml [9, 23]: 1.7 × 10^3 Bacteria/ml | Bacteria/ml [9, 24]: 1.5 × 10^5 Bacteria/ml | Bacteria/ml [9, 25]: 1.3 × 10^5 Bacteria/ml | Bacteria/ml [9, 26]: 4.9 × 10^4 Bacteria/ml | Bacteria/ml [9, 27]: 5.7 × 10^4 Bacteria/ml | Bacteria/ml [9, 28]: 9.5 × 10^4 Bacteria/ml | Bacteria/ml [9, 29]: 1.1 × 10^5 Bacteria/ml | Bacteria/ml [9, 30]: 30 Bacteria/ml | Bacteria/ml [9, 31]: 190 Bacteria/ml | MIC Zn(II) (Fusarium sp.; [16]): >200 ppm and <200 ppm | viable free-living microorganisms ([10]; 5% semisynth. MWF): 4.6 × 10^5 cells/ml | viable free-living microorganisms ([10]; 5% synthetic MWF): 8.7 × 10^6 cells/ml | viable free-living microorganisms ([10]; 100% TSB): 3.4 × 10^6 cells/ml | Fungi/ml [11, 17]: 1.0 × 10^4 Fungi/ml | Fungi/ml [11, 18]: 5.0 × 10^3 Fungi/ml | Fungi/ml [11, 19]: 4.8 × 10^2 Fungi/ml | Fungi/ml [11, 20]: 1.2 × 10^4 Fungi/ml | Fungi/ml [11, 21]: 1.6 × 10^4 Fungi/ml | Fungi/ml [11, 22]: 4.0 × 10^3 Fungi/ml | Fungi/ml [11, 23]: 1.2 × 10^4 Fungi/ml | Fungi/ml [11, 24]: 1.5 × 10^4 Fungi/ml | Fungi/ml [11, 25]: 1.3 × 10^3 Fungi/ml | Fungi/ml [11, 26]: 3.3 × 10^4 Fungi/ml | Fungi/ml [11, 27]: 1.1 × 10^4 Fungi/ml | Fungi/ml [11, 28]: 4.4 × 10^4 Fungi/ml | Fungi/ml [11, 29]: 2.0 × 10^4 Fungi/ml | Fungi/ml ([11]; semi-synthetic, Zn (II) 1000 PPM, Day 1): 4.1 × 10^4 Fungi/ml | Fungi/ml ([11]; semi-synthetic, Zn (II) 1000 PPM, Day 4): 1.0 × 10^4 Fungi/ml | Fungi/ml [11, 30]: 7.5 × 10^4 Fungi/ml | Fungi/ml ([11]; synthetic, Zn (II) 10 PPM, Day 2): 3.1 × 10^4 Fungi/ml | Fungi/ml ([11]; synthetic, Zn (II) 10 PPM, Day 7): 1.4 × 10^4 Fungi/ml | Fungi/ml [11, 31]: 3.9 × 10^4 Fungi/ml | Fungi/ml ([11]; synthetic, Zn (II) 20 PPM, Day 2): 2.2 × 10^4 Fungi/ml | Fungi/ml ([11]; synthetic, Zn (II) 20 PPM, Day 7): 1.3 × 10^4 Fungi/ml | Fungi/ml ([11]; synthetic, Zn (II) 30 PPM, Day 1): 4.2 × 10^4 Fungi/ml | Fungi/ml ([11]; synthetic, Zn (II) 30 PPM, Day 2): 2.1 × 10^4 Fungi/ml | Fungi/ml ([11]; synthetic, Zn (II) 30 PPM, Day 7): 5.0 × 10^3 Fungi/ml | Fungi/ml ([11]; synthetic, Zn (II) 100 PPM, Day 1): 2.1 × 10^4 Fungi/ml | Fungi/ml ([11]; synthetic, Zn (II) 100 PPM, Day 4): 6.0 × 10^3 Fungi/ml | Fungi/ml ([11]; synthetic, Zn (II) 500 PPM, Day 1): 9.0 × 10^3 Fungi/ml | Fungi/ml ([11]; synthetic, Zn (II) 500 PPM, Day 4): 5.0 × 10^3 Fungi/ml | Fungi/ml ([11]; synthetic, Zn (II) 1000 PPM, Day 1): 4.0 × 10^3 Fungi/ml | Fungi/ml ([11]; synthetic, Zn (II) 1000 PPM, Day 4): 2.0 × 10^3 Fungi/ml | Fungi/ml ([11]; synthetic, Zn (II) 5000 PPM, Day 1): 2.0 × 10^3 Fungi/ml | Fungi/ml ([11]; synthetic, Zn (II) 5000 PPM, Day 4): 4.0 × 10^3 Fungi/ml | viable free-living microorganisms [12]: 5.8 × 10^8 cells/ml | viable biofilm microorganisms (E. coli 8739 biofilm): 6.5 × 10^5 cells/cm^2

— patent US8206732B2, “Pyrithione biocides enhanced by silver, copper, or zinc ions” (Arch Chemicals, Inc., priority 1999, dated 2012)
